Test results taken from paper PMC12136037, “Type II kinase inhibitors that target Parkinson’s disease–associated LRRK2” (Science Advances, 2025).
Where “and” joins values, the source holds several entries; their conditions need not be identical. Equal values may be shown once.

Biological target: T1, LRRK2^RCKW (Homo sapiens, UniProt Q5S007)
T1 construct: LRRK2 R1327 to E2527; His6-Z-tag (TEV cleavable) (N, cleaved yes); host or cells: Sf9 insect cells (baculovirus)
T1 sequence (Q5S007 1327-2527): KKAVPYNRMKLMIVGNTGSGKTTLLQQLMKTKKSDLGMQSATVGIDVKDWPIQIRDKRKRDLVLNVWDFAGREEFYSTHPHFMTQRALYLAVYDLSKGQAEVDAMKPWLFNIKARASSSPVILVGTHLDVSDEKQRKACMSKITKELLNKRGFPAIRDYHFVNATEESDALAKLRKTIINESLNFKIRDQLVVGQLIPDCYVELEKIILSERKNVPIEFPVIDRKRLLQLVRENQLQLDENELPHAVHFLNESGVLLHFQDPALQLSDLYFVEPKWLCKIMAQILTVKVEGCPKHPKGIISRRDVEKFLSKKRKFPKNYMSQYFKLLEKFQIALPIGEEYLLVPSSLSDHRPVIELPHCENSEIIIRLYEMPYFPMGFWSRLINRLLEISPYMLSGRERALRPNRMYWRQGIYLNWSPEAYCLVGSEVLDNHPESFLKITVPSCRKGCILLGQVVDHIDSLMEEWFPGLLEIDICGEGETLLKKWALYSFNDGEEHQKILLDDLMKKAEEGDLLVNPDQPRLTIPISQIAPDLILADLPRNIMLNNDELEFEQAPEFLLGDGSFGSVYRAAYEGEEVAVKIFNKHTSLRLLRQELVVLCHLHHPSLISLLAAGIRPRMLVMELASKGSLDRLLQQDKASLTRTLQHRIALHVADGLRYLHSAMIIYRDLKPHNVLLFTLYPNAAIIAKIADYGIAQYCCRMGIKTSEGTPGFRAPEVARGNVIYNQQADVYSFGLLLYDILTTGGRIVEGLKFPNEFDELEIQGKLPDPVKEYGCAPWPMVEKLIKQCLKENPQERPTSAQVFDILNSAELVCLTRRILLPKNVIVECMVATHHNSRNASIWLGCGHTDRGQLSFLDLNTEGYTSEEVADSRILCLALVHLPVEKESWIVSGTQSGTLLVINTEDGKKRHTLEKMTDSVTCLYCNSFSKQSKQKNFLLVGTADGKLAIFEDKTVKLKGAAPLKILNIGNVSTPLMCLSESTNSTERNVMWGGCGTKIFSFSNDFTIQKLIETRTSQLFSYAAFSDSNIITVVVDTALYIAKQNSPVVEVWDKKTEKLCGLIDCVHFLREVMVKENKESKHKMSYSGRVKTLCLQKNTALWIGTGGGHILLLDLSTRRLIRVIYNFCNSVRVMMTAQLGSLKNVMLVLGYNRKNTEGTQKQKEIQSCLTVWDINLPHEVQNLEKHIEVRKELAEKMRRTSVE
Test: MS-based activity assay, Rab8a phosphorylation (pT72)
Format: biochemical
Conditions: for % phosphorylation: Rab8a; for % phosphorylation / Normalized: single runs; for LRRK2RCKW activity (% control): mean of n=3; for IC50: mass spectrometry, 1 mM ATP, 4 h, read-out: IC50, LRRK2^RCKW-mediated phosphorylation of Rab8a; for Normalized: normalized % phosphorylation of Rab8a
Description: To determine IC50 values for selected inhibitors, activity assay was performed using LRRK2^RCKW and Rab8A substrate (table S4). LRRK2^RCKW (20 nM) was incubated with 5 μM substrate and a concentration series of the respective inhibitor in 20 mM Hepes (pH 7.4), 100 mM NaCl, 0.5 mM TCEP, 0.5% glycerol, 20 μM GDP, and 2.5 mM MgCl2. The reaction was started by adding 1 mM ATP and incubated at room temperature for 4 hours. The phosphorylation reaction was stopped by addition of MS buffer (0.1% formic acid in water). Reaction mix (5 μl) was injected into an Agilent 6230 electrospray ionization time-of-flight mass spectrometer coupled to a 1260 Infinity liquid chromatography unit (flow rate at 0.4 ml/min using a solvent gradient of water to acetonitrile with 0.1% formic acid). Data were acquired using the MassHunter LC/MS Data Acquisition software and analyzed using the BioConfirm vB.08.00 tool (both Agilent Technology, www.agilent.com/en/product/software-informatics/mass-spectrometry-software, RRID: SCR_016657).
Peak intensities of unphosphorylated and phosphorylated Rab8A were quantified, and the relative kinase activity was calculated as a ratio. To determine the IC50, a nonlinear regression with variable slope was fitted to the datapoints with GraphPad Prism (www.graphpad.com/, RRID:SCR_002798). (For step-by-step protocol, see dx.doi.org/10.17504/protocols.io.6qpvr385ovmk/v2.)

[1] = inhibitor 0.21 (0.212), listed as RN341
[2] = inhibitor 0.64 (0.635), listed as RN341
[3] = inhibitor 1.91 (2), listed as RN341
[4] = inhibitor 5.72 (6), listed as RN341
[5] = inhibitor 17.15 (17), listed as RN341
[6] = inhibitor 51.44 (51), listed as RN341
[7] = inhibitor 154.32 (154), listed as RN341
[8] = inhibitor 462.96 (463), listed as RN341
[9] = inhibitor 1388.89 (1389), listed as RN341
[10] = inhibitor 4166.67 (4167), listed as RN341
[11] = inhibitor 12500, listed as RN341
[12] = inhibitor 0.21 (0.212), listed as RN277
[13] = inhibitor 0.64 (0.635), listed as RN277
[14] = inhibitor 1.91 (2), listed as RN277
[15] = inhibitor 5.72 (6), listed as RN277
[16] = inhibitor 17.15 (17), listed as RN277
[17] = inhibitor 51.44 (51), listed as RN277
[18] = inhibitor 154.32 (154), listed as RN277
[19] = inhibitor 462.96 (463), listed as RN277
[20] = inhibitor 1388.89 (1389), listed as RN277
[21] = inhibitor 4166.67 (4167), listed as RN277
[22] = inhibitor 12500, listed as RN277

SMILES: CCSc1nc(NC)c2c(-c3cccc(NC(=O)Nc4cc(C(C)(C)C)nn4-c4ccc(C)cc4)c3)c[nH]c2n1 [Compound 32]
- % phosphorylation [1]: 66.5% and 61.3% and 65.1%
- % phosphorylation [2]: 67.4% and 62.2% and 63.1%
- % phosphorylation [3]: 64.1% and 60.1% and 61.1%
- % phosphorylation [4]: 63.8% and 59.4% and 61.3%
- % phosphorylation [5]: 55.5% and 52.5% and 53.7%
- % phosphorylation [6]: 47.7% and 41.6% and 46.5%
- % phosphorylation [7]: 25.7% and 23.0% and 24.6%
- % phosphorylation [8]: 11.0% and 11.8% and 10.3%
- % phosphorylation [9]: 8.0% and 8.8% and 7.9%
- % phosphorylation [10]: 5.7% and 6.7% and 6.1%
- % phosphorylation [11]: 5.9% and 7.2% and 6.3%
- LRRK2RCKW activity (% control) (inhibitor 0.64 nM): 100.63 % control
- LRRK2RCKW activity (% control) (inhibitor 5.72 nM): 96.37 % control
- LRRK2RCKW activity (% control) (inhibitor 17.15 nM): 84.53 % control
- LRRK2RCKW activity (% control) (inhibitor 51.44 nM): 70.93 % control
- LRRK2RCKW activity (% control) (inhibitor 154.32 nM): 38.27 % control
- LRRK2RCKW activity (% control) (inhibitor 462.96 nM): 17.40 % control
- LRRK2RCKW activity (% control) (inhibitor 1388.89 nM): 12.93 % control
- IC50: 110 nM
- Normalized [1]: 99.7 and 99.1 and 103.7
- Normalized [2]: 101.0 and 100.4 and 100.5
- Normalized [3]: 96.1 and 97.0 and 97.3
- Normalized [4]: 95.6 and 96.0 and 97.5
- Normalized [5]: 83.2 and 84.9 and 85.6
- Normalized [6]: 71.6 and 67.2 and 74.0
- Normalized [7]: 38.5 and 37.1 and 39.2
- Normalized [8]: 16.6 and 19.1 and 16.5
- Normalized [9]: 12.0 and 14.2 and 12.6
- Normalized [10]: 8.5 and 10.8 and 9.6
- Normalized [11]: 8.9 and 11.6 and 10.1

SMILES: Cc1ccc(-n2nc(C(C)(C)C)cc2NC(=O)Nc2cccc(-c3c[nH]c4nc(Cl)nc(N5CCOCC5)c34)c2)cc1 [Compound 30]
- % phosphorylation [12]: 60.4% and 59.2% and 60.0%
- % phosphorylation [13]: 61.6% and 60.3% and 62.2%
- % phosphorylation [14]: 60.4% and 59.2%
- % phosphorylation [15]: 61.0% and 59.5% and 59.1%
- % phosphorylation [16]: 52.8% and 50.7% and 48.4%
- % phosphorylation [17]: 34.0% and 33.1% and 33.2%
- % phosphorylation [18]: 18.1% and 19.7% and 20.2%
- % phosphorylation [19]: 8.2% and 8.7% and 10.4%
- % phosphorylation [20]: 5.3% and 5.2% and 5.4%
- % phosphorylation [21]: 4.0% and 5.6%
- % phosphorylation [22]: 4.6% and 3.7% and 4.4%
- LRRK2RCKW activity (% control) (inhibitor 0.64 nM): 102.03 % control
- LRRK2RCKW activity (% control) (inhibitor 5.72 nM): 99.57 % control
- LRRK2RCKW activity (% control) (inhibitor 17.15 nM): 84.23 % control
- LRRK2RCKW activity (% control) (inhibitor 51.44 nM): 55.63 % control
- LRRK2RCKW activity (% control) (inhibitor 154.32 nM): 32.20 % control
- LRRK2RCKW activity (% control) (inhibitor 462.96 nM): 15.20 % control
- LRRK2RCKW activity (% control) (inhibitor 1388.89 nM): 8.77 % control
- IC50: 70 nM
- Normalized [12]: 100.1 and 100.0 and 98.5
- Normalized [13]: 102.0 and 101.9 and 102.2
- Normalized [14]: 99.9 and 100.1 and 99.3
- Normalized [15]: 100.9 and 100.6 and 97.0
- Normalized [16]: 87.4 and 85.7 and 79.5
- Normalized [17]: 56.4 and 55.8 and 54.6
- Normalized [18]: 29.8 and 32.7 and 34.1
- Normalized [19]: 13.5 and 14.4 and 17.6
- Normalized [20]: 8.6 and 9.0
- Normalized [21]: 6.6 and 9.5
- Normalized [22]: 7.5 and 6.1
